{
  "source": "paper PMC9243782",
  "about": "(Aaps Open, 2022)",
  "key": {"[1]": {"assay": "First in human single ascending dose and food effect PK study of JOTROL, plasma", "details": "for AUC(0-t) / Cmax / Tmax / half-life / AUC(0-inf) / k el: both, human; for AUC(0-inf): AUC0-inf; for k el: Kel", "procedure": "A total of 24 healthy, adult male or female volunteers were included in study part 1. […] A food effect arm was also included as part 2. […] Given that the in life portion of the study was done during the pandemic, total number, gender, ethnicity, etc., of the subjects was not mandated. A total of 4 study periods were included in this study with washout of at least 14 days between doses. […] After the completion of each cohort, an evaluation of the safety data was performed prior to determining whether to proceed with enrollment for the next scheduled dose level, to modify the dose, or to discontinue the study. […] The aliquots were transferred to a - 80 °C freezer (no more than 60 min passed between the start of centrifugation and aliquot storage), pending analysis/shipment to the analytical facility. […] Samples are extracted by a protein precipitation extraction procedure, and the compounds are detected and quantified by tandem mass spectrometry in positive ion mode on an MDS Sciex API 6500+ equipped with a Turbo Ionspray® interface. […] All concentration values that were below the lower limit of quantification (BLQ) occurring prior to dosing as well as samples with no reportable value (NRV) occurring prior to dosing were replaced by “0.00”; otherwise, they (BLQ and NRV) were set to missing for tabulation, graphical representation, and calculation purposes. PK analyses were performed using Phoenix WinNonlin® version 8.2, which was validated by Syneos Health. The WinNonlin noncompartmental analysis (NCA) module was used [NT]0-t (last detectable concentration), AUC0-inf (infinity), residual area (%), Cmax, Tmax, T1/2 el (elimination half-life), and Kel (elimination rate constant). […] Power model included the PK parameter as the response variable and dose (mg) as the explanatory variable. For this model, the variable dose was treated as a continuous variable. For evaluation of the food-effect, PK data (ln-transformed AUC0-t, AUC0-inf, Cmax and untransformed Tmax) reported under fed conditions (Period 4) and under fasting conditions (for the same dose level) were compared using analysis of variance (ANOVA) from SAS®. The ratio (fed/fasting) and 90% geometric CI were also calculated for AUC0-t, AUC0-inf, and Cmax."}, "[2]": {"details": "cited from earlier work"}, "[3]": {"assay": "First in human PK study of JOTROL, urine excretion", "format": "in vivo", "details": "for CL renal: human, urine", "procedure": "For day 2 (24 h post-dose) urine collection, subjects were asked to void their bladder within 15 min before the end of the collection interval (12–24 h). For other collections, subjects were asked to void their bladder within 10 min before the end of each collection interval. Urine voided at the intersection of two intervals was included in the earlier interval. Any urine voided by subjects but not collected was documented.\nThe volume of urine collected in each interval was measured (individual urine volumes are on file), and two aliquots of equal volume were dispensed into polypropylene tubes for each interval. Aliquots were stored in a − 80 °C freezer, pending analysis; remaining urine from each subject was discarded."}, "[4]": {"details": "plasma, po, 200 mg, resveratrol in plasma, mean, Treatment A: JOTROL 200 mg single oral dose, fasting"}, "[5]": {"details": "plasma, po, 500 mg, resveratrol in plasma, mean, Treatment B: JOTROL 500 mg single oral dose, fasting"}, "[6]": {"details": "plasma, po, 500 mg, resveratrol in plasma, mean, Treatment D: JOTROL 500 mg single oral dose, fed (high-fat meal)"}, "[7]": {"details": "plasma, po, 700 mg, resveratrol in plasma, mean, Treatment C: JOTROL 700 mg single oral dose, fasting"}, "[8]": {"details": "500 mg caplets, 5 g, mean ± SD, ref Boocock et al. ([2007])"}, "[9]": {"details": "500 mg caplets, 5 g, mean ± SD, ref Brown et al. ([2010])"}, "[10]": {"details": "Friedreich's ataxia study, ref Yiu et al. ([2015])"}},
  "note": "Read-outs that look alike come from different tables or passages of the source.",
  "data": [
    {"smiles": "O=S(=O)(O)Oc1cc(O)cc(C=Cc2ccc(O)cc2)c1", "note": "[resveratrol-3-sulfate]", "values": [
      {"measurement": "Effect of food consumption on metabolite concentrations", "setting": "[1]; JOTROL 500 mg fed vs fasting", "result": "significantly decreased"},
      {"measurement": "AUC(0-t)", "setting": "[1]; plasma, oral, Mean AUC0-t, range over doses, metabolite in plasma, increasing JOTROL (resveratrol) doses", "result": "12000 to 54500", "unit": "ng·h/mL"},
      {"measurement": "Cmax", "setting": "[1]; plasma, oral, Mean Cmax, range over doses, metabolite in plasma, increasing JOTROL (resveratrol) doses", "result": "6620 to 23600", "unit": "ng/mL"}
    ]},
    {"smiles": "Oc1ccc(/C=C/c2cc(O)cc(O)c2)cc1", "note": "[micronized resveratrol]", "values": [
      {"measurement": "Absorption", "setting": "[2]; human, in vivo, po", "result": "~ 70%"}
    ]},
    {"smiles": "Oc1ccc(/C=C/c2cc(O)cc(O)c2)cc1", "note": "[Resveratrol, 3,5,4′-stilbenotriol]", "values": [
      {"measurement": "Delay of the peak concentration by food", "setting": "[1]; JOTROL 500 mg fed vs fasting", "result": "approximately 30 min"},
      {"measurement": "Dose proportionality of AUC0-t and Cmax (power model)", "setting": "[1]; JOTROL 200, 500, 700 mg fasting", "result": "higher than expected if dose proportional"},
      {"measurement": "Gender differences in the exposure of resveratrol", "setting": "[1]; all JOTROL doses, p = 0.011", "result": "mean female AUC values tend to be higher than male values"},
      {"measurement": "Tmax", "setting": "[1]; in vivo, po, 500 mg", "result": 1, "unit": "h"},
      {"measurement": "Tmax", "setting": "[1]; plasma, oral", "result": "~1", "unit": "h"},
      {"measurement": "AUC(0-t)", "setting": "[1]; plasma, oral, Mean AUC0-t, range over doses, resveratrol in plasma, JOTROL 200 to 700 mg, fasting", "result": "149 to 886", "unit": "ng·h/mL"},
      {"measurement": "half-life", "setting": "[1]; plasma, oral, T½, resveratrol in plasma after JOTROL, N low, interpret with caution", "result": "~2", "unit": "h"},
      {"measurement": "Tmax", "setting": "[1]; plasma, po, 200 mg", "result": 0.999, "unit": "h"},
      {"measurement": "AUC(0-inf)", "setting": "[1]; [4]", "result": 215, "unit": "ng·h/mL"},
      {"measurement": "AUC(0-t)", "setting": "[1]; plasma, po, 200 mg, AUC0-t, resveratrol in plasma, mean, Treatment A: JOTROL 200 mg single oral dose, fasting", "result": 149, "unit": "ng·h/mL"},
      {"measurement": "k el", "setting": "[1]; [4]", "result": 0.000153, "unit": "s⁻¹"},
      {"measurement": "half-life", "setting": "[1]; plasma, po, 200 mg, T1/2 el, resveratrol in plasma, mean, Treatment A: JOTROL 200 mg single oral dose, fasting", "result": 1.26, "unit": "h"},
      {"measurement": "AUC(0-inf)", "setting": "[1]; [5]", "result": 574, "unit": "ng·h/mL"},
      {"measurement": "AUC(0-inf)", "setting": "[1]; [6]", "result": 613, "unit": "ng·h/mL"},
      {"measurement": "AUC(0-t)", "setting": "[1]; plasma, po, 500 mg, AUC0-t, resveratrol in plasma, mean, Treatment B: JOTROL 500 mg single oral dose, fasting", "result": 480, "unit": "ng·h/mL"},
      {"measurement": "AUC(0-t)", "setting": "[1]; plasma, po, 500 mg, AUC0-t, resveratrol in plasma, mean, Treatment D: JOTROL 500 mg single oral dose, fed (high-fat meal)", "result": 306, "unit": "ng·h/mL"},
      {"measurement": "Cmax", "setting": "[1]; plasma, po, 500 mg, Cmax, resveratrol in plasma, mean, Treatment B: JOTROL 500 mg single oral dose, fasting", "result": 455, "unit": "ng/mL"},
      {"measurement": "k el", "setting": "[1]; [5]", "result": "9.22e-05", "unit": "s⁻¹"},
      {"measurement": "k el", "setting": "[1]; [6]", "result": 0.000152, "unit": "s⁻¹"},
      {"measurement": "half-life", "setting": "[1]; plasma, po, 500 mg, T1/2 el, resveratrol in plasma, mean, Treatment B: JOTROL 500 mg single oral dose, fasting", "result": 2.74, "unit": "h"},
      {"measurement": "half-life", "setting": "[1]; plasma, po, 500 mg, T1/2 el, resveratrol in plasma, mean, Treatment D: JOTROL 500 mg single oral dose, fed (high-fat meal)", "result": 1.71, "unit": "h"},
      {"measurement": "Tmax", "setting": "[1]; plasma, po, 700 mg", "result": 1.02, "unit": "h"},
      {"measurement": "AUC(0-inf)", "setting": "[1]; [7]", "result": 611, "unit": "ng·h/mL"},
      {"measurement": "AUC(0-t)", "setting": "[1]; plasma, po, 700 mg, AUC0-t, resveratrol in plasma, mean, Treatment C: JOTROL 700 mg single oral dose, fasting", "result": 886, "unit": "ng·h/mL"},
      {"measurement": "Cmax", "setting": "[1]; plasma, po, 700 mg, Cmax, resveratrol in plasma, mean, Treatment C: JOTROL 700 mg single oral dose, fasting", "result": 805, "unit": "ng/mL"},
      {"measurement": "k el", "setting": "[1]; [7]", "result": 0.000126, "unit": "s⁻¹"},
      {"measurement": "half-life", "setting": "[1]; plasma, po, 700 mg, T1/2 el, resveratrol in plasma, mean, Treatment C: JOTROL 700 mg single oral dose, fasting", "result": 1.6, "unit": "h"},
      {"measurement": "Residual Area", "setting": "[1]; resveratrol in plasma, mean, Treatment D: JOTROL 500 mg single oral dose, fed (high-fat meal)", "result": 3.7, "unit": "%"},
      {"measurement": "CL renal", "setting": "[3]; oral, resveratrol after JOTROL 200 to 700 mg, read-out: Renal clearance, range over treatments", "result": "2.33 to 4.17", "unit": "mL/min"},
      {"measurement": "CL renal", "setting": "[3]; oral, resveratrol after JOTROL, conversion of 0.14 to 0.25 L/h, read-out: Renal clearance", "result": "~4", "unit": "mL/min"},
      {"measurement": "CL renal", "setting": "[3]; po, 200 mg, resveratrol renal clearance, mean, Treatment A: JOTROL 200 mg single oral dose, fasting, read-out: CLR (converted)", "result": 4.17, "unit": "mL/min"},
      {"measurement": "CL renal", "setting": "[3]; po, 500 mg, resveratrol renal clearance, mean, Treatment B: JOTROL 500 mg single oral dose, fasting, read-out: CLR (converted)", "result": 2.33, "unit": "mL/min"},
      {"measurement": "CL renal", "setting": "[3]; po, 700 mg, resveratrol renal clearance, mean, Treatment C: JOTROL 700 mg single oral dose, fasting, read-out: CLR (converted)", "result": 3.17, "unit": "mL/min"},
      {"measurement": "Renal clearance as share of GFR", "setting": "[3]; resveratrol after JOTROL", "result": "3 % of GFR"},
      {"measurement": "TRmax", "setting": "[3]; resveratrol in urine, mean, Treatment A: JOTROL 200 mg single oral dose, fasting", "result": 1.5, "unit": "h"},
      {"measurement": "Cmax", "setting": "[2]; 25 mg (overnight fast +3 h), radiolabeled dose, ref Walle et al. ([2004])", "result": "< 5", "unit": "ng/mL"},
      {"measurement": "AUC", "setting": "[2]; 500 mg caplets, 5 g, AUC to infinity, mean ± SD, ref Boocock et al. ([2007])", "result": "1319 ± 780", "unit": "ng·h/mL"},
      {"measurement": "Cmax", "setting": "[2]; [8]", "result": "538 ± 391", "unit": "ng/mL"},
      {"measurement": "t1/2", "setting": "[2]; [8]", "result": "8.5 ± 8.2", "unit": "h"},
      {"measurement": "AUC", "setting": "[2]; [9]", "result": "4097 ± 4384", "unit": "ng·h/mL"},
      {"measurement": "Cmax", "setting": "[2]; [9]", "result": "967 ± 517", "unit": "ng/mL"},
      {"measurement": "t1/2", "setting": "[2]; [9]", "result": "7.85 ± 1.97", "unit": "h"},
      {"measurement": "Cmax", "setting": "[2]; 1 g encapsulated dose, ref Turner et al., Neurology 85:1383-91, 2015", "result": 85, "unit": "ng/mL"},
      {"measurement": "Cmax", "setting": "[2]; 2 g, 500 mg encapsulated, mean ± SD, ref Turner et al. ([2015])", "result": "85 ± 184", "unit": "ng/mL"},
      {"measurement": "t1/2", "setting": "[2]; 2 g, 500 mg encapsulated, ref Turner et al. ([2015])", "result": 15, "unit": "h"},
      {"measurement": "Cmax", "setting": "[2]; 2.5 g micronized dose, ref Howells et al., Cancer Prev Res (Phila) 4:1419-1425, 2011", "result": 1942, "unit": "ng/mL"},
      {"measurement": "AUC exposure (estimated)", "setting": "[2]; 3,000 mg/day of unmodified resveratrol, healthy volunteers, ref published data", "result": 2100, "unit": "ng·h/mL"},
      {"measurement": "Plasma Cmax associated with positive biomarker outcomes (amyloid beta, inflammation modulators)", "setting": "[2]; Alzheimer's trial, ref Turner et al. [2015], Moussa et al. [2017], Sawda et al. [2017]", "result": 85, "unit": "ng/mL"},
      {"measurement": "Nominal mean plasma Cmax not associated with any efficacy", "setting": "[2]; [10]", "result": 128, "unit": "ng/mL"},
      {"measurement": "Nominal plasma mean Cmax associated with positive clinical outcomes", "setting": "[2]; [10]", "result": 261, "unit": "ng/mL"}
    ]}
  ]
}
